Data reported in patent EP0736302A2, “Protease inhibitors, a DNA construct for the expression of a protease and a process for measuring proteases and/or protease inhibitors” (Stichting REGA V.Z.W., priority 1995, dated 1996).
Values after ≈ are worked out from the molar mass of the structure shown. “Also recorded” adds a separate entry of the source. Where a name gives a salt, the structure may show the parent alone.

Tests used:
[1] = molecular target: T1, gelatinase B from neutrophils (Homo sapiens, UniProt P14780); experiment: gelatinase microtiter plate assay (digestion of biotinylated gelatin, inhibition factor); assay type: biochemical; parameters: endogenous in cells; host or cells: human neutrophils stimulated with lipopolysaccharide; conditioned medium; conditions: crude neutrophil gelatinase B, '-' = no inhibitory activity
T1 sequence (P14780 94-707): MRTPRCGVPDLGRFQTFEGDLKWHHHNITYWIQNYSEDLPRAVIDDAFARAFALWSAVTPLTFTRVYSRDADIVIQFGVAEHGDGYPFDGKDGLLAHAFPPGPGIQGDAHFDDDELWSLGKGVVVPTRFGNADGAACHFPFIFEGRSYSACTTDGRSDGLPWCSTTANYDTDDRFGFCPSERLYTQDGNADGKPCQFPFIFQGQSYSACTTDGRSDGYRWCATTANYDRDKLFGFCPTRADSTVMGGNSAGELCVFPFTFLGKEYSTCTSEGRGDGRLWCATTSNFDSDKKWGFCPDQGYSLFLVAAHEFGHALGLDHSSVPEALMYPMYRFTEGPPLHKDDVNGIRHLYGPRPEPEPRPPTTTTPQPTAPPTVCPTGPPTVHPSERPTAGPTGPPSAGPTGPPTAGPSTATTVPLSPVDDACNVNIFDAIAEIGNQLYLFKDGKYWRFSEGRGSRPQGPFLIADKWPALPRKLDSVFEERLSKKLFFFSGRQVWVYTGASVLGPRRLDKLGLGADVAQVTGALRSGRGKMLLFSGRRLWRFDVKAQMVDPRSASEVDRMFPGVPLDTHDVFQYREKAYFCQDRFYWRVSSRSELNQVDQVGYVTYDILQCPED
Experimental: The measurement of gelatinase activity was based on the detection of non-degraded biotinylated gelatin with a streptavidin-peroxidase conjugate. This test is based on the biotin-avidin method described by Sorbi et al. (25) but modified to a one plate assay (schematically represented in Fig. 1.). Gelatin (1mg/ml) was dissolved in 0.1 M sodium bicarbonate pH 8.3 by heating to 40°C. Biotin-N-hydroxysuccinimide ester was dissolved in dimethylsulfoxide (Me2SO) and was added to the gelatin in a 15-fold molar excess. The mixture was allowed to react overnight at 4°C and the biotinylated gelatin was then dialyzed against phosphate buffered saline (PBS). Neutrophil granulocyte (Neu) medium was collected from human neutrophils after stimulation with lipopolysaccharide (1µg/ml) overnight at 37°C in Minimal Essential Medium. Cells were removed by 10 min centrifugation at 1000 g. Purified gelatinase was obtained by one-step affinity chromatography of neutrophil medium on a gelatin-sepharose column as described (8).
Modified flat bottom 96-well ELISA plates were coated overnight with 0.5 µg/ml avidin in distilled water. The plates were then blocked with 0.3% bovine serum albumin (BSA, Sigma) in PBS for 1 hour at 37°C. Biotinylated gelatin was diluted to 50 µg/ml and 100µl was added to the avidin-coated wells. After incubation for one hour at 20°C, the plate was rinsed with PBS. Medium containing the secreted gelatinases from human neutrophils (dilution range 1/3-1/3^11) and the inhibitors were diluted in incubation buffer (50 mM Tris-HCl pH 7.5, 10 mM CaCl2, 0.02% (W/V) NaN3, 1% (V/V) Triton X-100) and 100 µl of each were mixed. 190 µl of the mixture was added to the gelatin-coated plates and allowed to digest the gelatin overnight at 37°C. The plates were then washed with PBS and each well was incubated with 100 µl peroxidase-conjugated-streptavidin at a 1:2000 dilution for 1 hour at 37°C. After rinsing the plate, the ABTS substrate was added (0.5 mg/ml solution containing 0.1 M citric acid, 0.2 M Na2HPO4, pH 4.3, 0.07 µl/ml 30% H2O2) and the optical density was read at 405 nm after 10 min. incubation at room temperature.
Gelatin is biotinylated and bound to avidin-coated microtiter plates. By addition of gelatinases the number of free biotin groups decreases and proportionally less streptavidin-peroxidase is bound to the residual substrate. Bound streptavidin-peroxidase activity is measured spectrophotometrically by reaction of peroxide with ABTS. Inhibition of gelatinase is obtained by the addition of inhibitor to a known amount of gelatinase prior to application to the plates. The peroxidase activity increases proportionally with the inhibitory activity.
The titration curves of gelatinase inhibition were always related to a blanc curve and this for enzyme concentrations within the slope of the curve (vertical dotted lines Fig. 3). The decrease in enzyme activity to which the inhibitor-incubated sample corresponded was defined as the inhibition factor (IF).
The titration curves of gelatinase inhibition by tetracyclines were always related to a blanc curve and this for enzyme concentrations within the slope of the curve (vertical dotted lines Fig. 3). The decrease in enzyme activity to which the tetracycline incubated sample corresponded was defined as the inhibition factor (IF).

[2] = molecular target: T1, gelatinase B from neutrophils; experiment: quantitative gelatin zymography with inhibitor in the developing buffer; assay type: biochemical; parameters: A standard preparation of gelatinase B from neutrophils was repetitiously loaded; endogenous in cells; host or cells: human neutrophils; conditions: increasing amounts of inhibitor in developing buffer (Fig. 4)
Experimental: Quantitative zymography was performed as described (7,8). Briefly, 40 µl of loading buffer was added to 40 µl of each sample and applied on 7.5% polyacrylamide gels which had been co-polymerised with 0.1% (w/v) gelatin. Stacking gels contained 5% polyacrylamide. The gels were run at 4°C for 16h at 90V. The gels were then incubated in washing buffer (50 mM Tris-HCl pH 7.5, 10mM CaCl2, O.O2% (W/V) NaN3, 2.5% (v/v) Triton X-100) at room temperature, 2x20 min to remove sodium dodecyl sulfate and overnight in developing buffer (50 mM Tris-HCl pH 7.5, 10mM CaCl2, O.O2% (w/v) NaN3, 1% (v/v) Triton X-100) at 37°C. The gels were then stained in Coomassie brilliant blue R-250 and destained in methanol/acetic acid. The sites of gelatinase activity appeared as unstained bands on a blue background and were quantified by computerised image analysis through scanning densitometry with a PDI scanner (Pharmacia, Belgium) and the PDI software package. For inhibition experiments, the inhibitors were dissolved in the developing buffer at the appropriate concentration. […] The enzyme activity was developed by staining of the substrate with Coomassie blue and quantification of the substrate digestion by scanning densitometry. […] The enzyme activity was developed by staining of the substrate with Coomassie blue and quantification of the substrate digestion by scanning densitometry. […]

gelatinase B [3] = experiment: inhibition of homogeneous enzyme (ID50); assay type: biochemical
[4] = system: human monocytic cell line THP-1; experiment: cellular gelatinase B protein and mRNA production (northern blot, zymography); assay type: cell-based; conditions: THP-1, LPS 1µg/ml, retinoic acid 100nM or untreated; DPEN 50 µg/ml; 16 h (Fig. 14)
Experimental: Figure 14. […] Cultures of the human monocytic cell line THP-1 were stimulated with lipopolysaccharide (LPS, 1µg/ml), retinoic acid (RA, 100nM) or left untreated (CO) in the presence or absence of D-penicillamine (DPEN, 50 µg/ml). After 16 h total RNA was extracted and gelatinase B mRNA was measured by northern blot analysis with a human probe (41) (a). Gelatinase B protein in the cell culture fluids was assayed by zymographic analysis on gelatin substrate gels (b).

Biozzi AB/H mice = experiment: chronic relapsing experimental allergic encephalomyelitis; assay type: in vivo; conditions: 750 µg three times weekly from day 22 onwards, after full-blown disease (Fig. 16)
SJL mice = experiment: acute (hyperacute) experimental allergic encephalomyelitis; conditions: intraperitoneally, equivalent of 27 to 375 µg per mouse daily (Fig. 15)
Experimental: In both hind paws 50µl of this emulsion was injected on day 0. On day 0 and 2, 50µl B.pertussis (200x10^9 bacteria/ml) were injected intraveneously. […] The control group received injections with 0.9% NaCl, used as excipiens. The animals were daily monitored and the disease and mortality were scored.).

Gelatinase A = molecular target: T2, Gelatinase A (Homo sapiens, UniProt P08253); experiment: zymography of cerebrospinal fluid of MS / optic neuritis patients with inhibitor; assay type: biochemical; conditions: CSF of MS patients, increasing concentrations (Fig. 13)
T2 construct: Gelatinase A and B, detected by zymography in the cerebrospinal fluid of MS patients; from tissue; host or cells: cerebrospinal fluid of patients with multiple sclerosis or optic neuritis
T2 sequence (P08253 110-660): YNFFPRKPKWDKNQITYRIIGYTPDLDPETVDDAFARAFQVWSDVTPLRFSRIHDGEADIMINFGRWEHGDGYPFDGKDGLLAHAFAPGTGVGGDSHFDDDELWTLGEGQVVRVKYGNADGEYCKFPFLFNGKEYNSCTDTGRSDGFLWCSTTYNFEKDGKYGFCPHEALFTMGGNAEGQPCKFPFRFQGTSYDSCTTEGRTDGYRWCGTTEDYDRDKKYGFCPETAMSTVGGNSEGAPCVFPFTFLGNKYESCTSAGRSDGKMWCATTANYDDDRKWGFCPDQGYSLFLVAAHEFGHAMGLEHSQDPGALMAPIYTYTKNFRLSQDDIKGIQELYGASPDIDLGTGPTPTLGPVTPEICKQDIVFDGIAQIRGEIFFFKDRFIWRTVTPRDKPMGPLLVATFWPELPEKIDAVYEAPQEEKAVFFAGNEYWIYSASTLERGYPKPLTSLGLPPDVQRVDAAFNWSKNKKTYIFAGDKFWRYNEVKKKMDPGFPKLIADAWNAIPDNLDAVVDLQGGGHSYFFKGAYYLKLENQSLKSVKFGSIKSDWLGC
Experimental: (§1) Quantitative zymography was performed as described (7,8). Briefly, 40 µl of loading buffer was added to 40 µl of each sample and applied on 7.5% polyacrylamide gels which had been co-polymerised with 0.1% (w/v) gelatin. Stacking gels contained 5% polyacrylamide. The gels were run at 4°C for 16h at 90V. The gels were then incubated in washing buffer (50 mM Tris-HCl pH 7.5, 10mM CaCl2, O.O2% (W/V) NaN3, 2.5% (v/v) Triton X-100) at room temperature, 2x20 min to remove sodium dodecyl sulfate and overnight in developing buffer (50 mM Tris-HCl pH 7.5, 10mM CaCl2, O.O2% (w/v) NaN3, 1% (v/v) Triton X-100) at 37°C. […] The sites of gelatinase activity appeared as unstained bands on a blue background and were quantified by computerised image analysis through scanning densitometry with a PDI scanner (Pharmacia, Belgium) and the PDI software package. […]
(§2) Similar results were obtained when pure preparations of gelatinase B were tested or when gelatinase B was measured in the presence of D-penicillamine in body fluids or cell supernatants.
(§3) Figure 13. […] Gelatinase A (---) and B(_) activities in the CSF were measured by zymography in the absence or the presence of increasing concentrations of D-penicillamine. The scanning indices for each patient are calculated at the residual activity in the presence of inhibitor versus the activity without inhibitor. […]

Gelatinase B [5] = molecular target: T3, Gelatinase B (Homo sapiens, UniProt P14780); experiment: as above; assay type: biochemical; conditions: CSF of MS patients, increasing concentrations (Fig. 13)
T3 construct: Gelatinase A and B, detected by zymography in the cerebrospinal fluid of MS patients; from tissue; host or cells: cerebrospinal fluid of patients with multiple sclerosis or optic neuritis
T3 sequence (P14780 94-707): as the sequence (P14780 94-707) above
Experimental: as §1, §2, §3

[6] = tetracycline concentration 0,83 mg/ml
[7] = tetracycline concentration 1.67 mg/ml
[8] = tetracycline concentration 3.33 mg/ml

Compound | Inhibition factor (IF) [1, 7] | Inhibition factor (IF) [1, 8] | further results
CN(C)[C@@H]1C(O)=C(C(N)=O)C(=O)[C@@]2(O)C(O)=C3C(=O)c4c(O)ccc(Cl)c4[C@@](C)(O)[C@H]3C[C@@H]12 [chlortetracycline HCl] | 27 | 45 | Inhibition factor (IF) [1, 6]: 9
CN(C)c1ccc(O)c2c1C[C@H]1C[C@H]3[C@H](N(C)C)C(O)=C(C(N)=O)C(=O)[C@@]3(O)C(O)=C1C2=O [minocycline HCl] | 3 | 8 | inhibition of gelatinase B on zymography [2]: inhibits gelatinase B in a dose-dependent way
α-apooxytetracycline base | 3 | 9 | –
7-aminominocycline HCl | – | precipitation | –
β-apooxytetracycline base | – | 3 | –
CN(C)[C@@H]1C(=O)C(C(N)=O)=C(O)[C@@]2(O)C(=O)C[C@@H]([C@]3(C)OC(=O)c4c(O)ccc(Cl)c43)C[C@@H]12 [isochlortetracycline HCl] | – | 3 | –
CN(C)[C@@H]1C(O)=C(C(N)=O)C(=O)[C@@]2(O)C(O)=C3C(=O)c4c(O)cccc4[C@@](C)(O)[C@H]3C[C@@H]12 [tetracycline HCl] | 3 | 8 | –
CN(C)[C@H]1C(O)=C(C(N)=O)C(=O)[C@@]2(O)C(O)=C3C(=O)c4c(O)ccc(Cl)c4[C@@](C)(O)[C@H]3C[C@@H]12 [4-epichlortetracycline HCl] | – | precipitation | –
CN(C)c1ccc(O)c2c1C[C@H]1C[C@H]3[C@@H](N(C)C)C(O)=C(C(N)=O)C(=O)[C@@]3(O)C(O)=C1C2=O [4-epiminocycline HCl] | – | 3 | –
CC(C)(S)[C@@H](N)C(=O)O [D-penicillamine] | – | – | ID50 (gelatinase B [3]): 3 µg/mL (≈ 20.1 µM); spontaneous and induced levels of gelatinase B protein and mRNA [4]: remained constant; disease recurrencies (mean clinical score), chronic relapsing EAE (Biozzi AB/H mice): abrogated the disease recurrencies; development of disease symptoms (mean disability index), acute EAE (SJL mice): complete blockage; also recorded: inhibits in a dose-dependent way the development of disease symptoms; inhibition of Gelatinase A in cerebrospinal fluid (Gelatinase A): inhibited in a dose-dependent way; inhibition of Gelatinase B in cerebrospinal fluid (Gelatinase B [5]): inhibited in a dose-dependent way
4-epitetracycline HCl | 3 | – | –
Cc1c2c(c(O)c3c(O)cccc13)C(=O)[C@]1(O)C(=O)C(C(N)=O)=C(O)[C@H](N(C)C)[C@@H]1C2 [4-epianhydrotetracycline HCl] | – | precipitation | –
C=C1c2cccc(O)c2C(=O)C2=C(O)[C@]3(O)C(=O)C(C(N)=O)=C(O)[C@@H](N(C)C)[C@@H]3[C@@H](O)[C@H]12 [metacycline HCl] | 8 | 27 | Inhibition factor (IF) [1, 6]: 3
CN(C)[C@@H]1C(O)=C(C(N)=O)C(=O)[C@@]2(O)C(O)=C3C(=O)c4c(O)cccc4C[C@H]3C[C@@H]12 [6-deoxy-6-demethyltetracycline HCl] | 5 | 8 | Inhibition factor (IF) [1, 6]: 3
